Assays:
β2 receptor [1] = target: T1, β2 receptor (Homo sapiens, UniProt P07550); experiment: Alternative adrenergic β2 mediated cAMP production in H292 cells (60 minutes with test compound); assay type: cell-based
T1 construct: endogenous in cells; host or cells: H292 cells
Method: Alternative Adrenergic (β2 Mediated cAMP Production
H292 cells were grown in 225 cm2 flasks incubator at 37° C., 5% CO2 in RPMI medium containing, 10% (v/v) FBS (foetal bovine serum) and 2 mM L-glutamine.
Adherent H292 cells were removed from tissue culture flasks by treatment with Accutase™ cell detachment solution for 15 minutes. Flasks were incubated for 15 minutes in a humidified incubator at 37° C., 5% CO2. Detached cells were re-suspended in RPMI media (containing 10% (v/v) FBS and 2 mM L-glutamine) at 0.05×10^6 cells per mL. 5000 cells in 100 μL were added to each well of a tissue-culture-treated 96-well plate and the cells incubated overnight in a humidified incubator at 37° C., 5% CO2. The culture media was removed and cells were washed twice with 100 μL assay buffer and replaced with 50 μL assay buffer (HBSS solution containing 10 mM HEPES pH7.4 and 5 mM glucose). Cells were rested at room temperature for 20 minutes after which time 25 μL of rolipram (1.2 mM made up in assay buffer containing 2.4% (v/v) dimethylsulphoxide) was added. Cells were incubated with rolipram for 10 minutes after which time test compounds were added and the cells were incubated for 60 minutes at room temperature. The final rolipram concentration in the assay was 300 μM and final vehicle concentration was 1.6% (v/v) dimethylsulphoxide. The reaction was stopped by removing supernatants, washing once with 100 μL assay buffer and replacing with 50 μL lysis buffer. The cell monolayer was frozen at −80° C. for 30 minutes (or overnight).
The concentration of cAMP (cyclic adenosine monophosphate) in the cell lysate was determined using AlphaScreen™ methodology. The frozen cell plate was thawed for 20 minutes on a plate shaker then 10 μL of the cell lysate was transferred to a 96-well white plate. 40 μL of mixed AlphaScreen™ detection beads pre-incubated with biotinylated cAMP, was added to each well and the plate incubated at room temperature for 10 hours in the dark. The AlphaScreen™ signal was measured using an EnVision spectrophotometer (Perkin-Elmer Inc.) with the recommended manufacturer's settings. cAMP concentrations were determined by reference to a calibration curve determined in the same experiment using standard cAMP concentrations. Concentration response curves for agonists were constructed and data was fitted to a four parameter logistic equation to determine both the pEC50 and Intrinsic Activity. […]

[2] = target: T2, recombinant human Dopamine Subtype D2s receptors (Homo sapiens, UniProt P14416); experiment: Dopamine D2 selectivity assay, [3H]-spiperone binding to membranes; conditions: read-out: D2 bind pIC50 (converted)
T2 construct: purchased Perkin Elmer
T2 sequence (P14416 1-414 isoform P14416-2): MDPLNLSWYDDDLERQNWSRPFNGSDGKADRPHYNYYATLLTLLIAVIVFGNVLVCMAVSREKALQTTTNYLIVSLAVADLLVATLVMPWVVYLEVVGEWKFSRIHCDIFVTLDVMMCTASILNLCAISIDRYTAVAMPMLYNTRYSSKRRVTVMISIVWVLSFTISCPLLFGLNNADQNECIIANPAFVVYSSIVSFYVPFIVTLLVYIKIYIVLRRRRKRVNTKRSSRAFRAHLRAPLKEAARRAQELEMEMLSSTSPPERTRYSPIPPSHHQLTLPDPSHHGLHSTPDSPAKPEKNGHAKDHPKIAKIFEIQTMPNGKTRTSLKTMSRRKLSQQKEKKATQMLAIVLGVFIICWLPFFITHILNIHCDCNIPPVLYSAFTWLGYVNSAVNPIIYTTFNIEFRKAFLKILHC
Method: Membranes containing recombinant human Dopamine Subtype D2s receptors were obtained from Perkin Elmer. These were diluted in Assay Buffer (50 mM HEPES, […], 120 mM NaCl, 0.1% gelatin, pH 7.4) to provide a final concentration of membranes that gave a clear window between maximum and minimum specific binding.
Assays were performed in U-bottomed 96-well polypropylene plates. 30 μL [^3H]-spiperone (0.16 nM final concentration) and 30 μL of test compound (10× final concentration) were added to each test well. For each assay plate 8 replicates were obtained for [^3H]-spiperone binding in the presence of 30 μL vehicle (10% (v/v) DMSO in Assay Buffer; defining maximum binding) or 30 μL Haloperidol (10 μM final concentration; defining non-specific binding (NSB)). Membranes were then added to achieve a final volume of 300 μL. The plates were incubated for 2 hours at room temperature and then filtered onto PEI coated GF/B filter plates, pre-soaked for 1 hour in Assay Buffer, using a 96-well plate Tomtec cell harvester. Five washes with 250 μL wash buffer (50 mM HEPES, 1 mM EDTA, 120 mM NaCl, pH 7.4) were performed at 4° C. to remove unbound radioactivity. The plates were dried then sealed from underneath using Packard plate sealers and MicroScint-O (50 μL) was added to each well. The plates were sealed (TopSeal A) and filter-bound radioactivity was measured with a scintillation counter (TopCount, Packard BioScience) using a 3-minute counting protocol.
Total specific binding (B0) was determined by subtracting the mean NSB from the mean maximum binding. NSB values were also subtracted from values from all other wells.

β2 receptor [3] = target: T1, β2 receptor; experiment: β2 mediated cAMP production in H292 cells, AlphaScreen cAMP detection (10 minutes with test compound); assay type: cell-based
Method: H292 cells were grown in RPMI (Roswell Park Memorial Institute) medium containing, 10% (v/v) FBS (foetal bovine serum) and 2 mM L-glutamine. Cells were grown in 225 cm2 flasks containing 25 mL media in a humidified incubator at 37° C., 5% CO2. Cells were harvested from the flask and passaged at a 1 in 10 dilution once per week.
The media from flasks containing H292 cells was removed, rinsed with 10 mL PBS (phosphate buffered saline) and replaced with 10 mL Accutase™ cell detachment solution. Flasks were incubated for 15 minutes in a humidified incubator at 37° C., 5% CO2. The cell suspension was counted and the cells re-suspended in RPMI media (containing 10% (v/v) FBS and 2 mM L-glutamine) at 0.05×10^6 cells per mL. 5000 cells in 100 μL were added to each well of a tissue-culture-treated 96-well plate and the cells incubated overnight in a humidified incubator at 37° C., 5% CO2. The culture media was removed, washed twice with 100 μL assay buffer and replaced with 50 μL assay buffer. Cells were rested at room temperature for 20 minutes after which time 25 μL of rolipram (1.2 mM made up in assay buffer containing 2.4% (v/v) dimethylsulphoxide) was added. Cells were incubated with rolipram for 10 minutes after which time test compounds (made up as ×4 concentrated stocks in assay buffer containing 4% (v/v) dimethylsulphoxide) were added and the cells were incubated for 10 minutes at room temperature. Final rolipram concentration in the assay was 300 μM and final vehicle concentration was 1.6% (v/v) dimethylsulphoxide. The reaction was stopped by removing supernatants, washing once with 100 μL assay buffer and replacing with 50 μL lysis buffer. The cell monolayer was frozen at −80° C. for 30 minutes (or overnight).
The concentration of cAMP (cyclic adenosine monophosphate) in the cell lysate was determined using the AlphaScreen™ methodology. The frozen cell plate was thawed for 20 minutes on a plate shaker then 10 μL of the cell lysate was transferred to a 96-well white plate. 40 μL of mixed AlphaScreen™ detection beads (containing equal volumes of donor beads (pre-incubated with biotinylated cAMP in the dark for 30 minutes) and acceptor beads), was added to each well and the plate incubated at room temperature for 10 hours in the dark. The AlphaScreen™ signal was measured using an EnVision spectrophotometer (Perkin-Elmer Inc.) with the recommended manufacturer's settings. cAMP concentrations were determined by reference to a calibration curve determined in the same experiment using standard cAMP concentrations (made up in lysis buffer in a 96-well tissue-culture-treated plate and frozen/thawed alongside the test samples) and detected using the same protocol. Concentration response curves for agonists were constructed to determine both the pEC50 and Intrinsic Activity.

T1 sequence (P07550 whole entry): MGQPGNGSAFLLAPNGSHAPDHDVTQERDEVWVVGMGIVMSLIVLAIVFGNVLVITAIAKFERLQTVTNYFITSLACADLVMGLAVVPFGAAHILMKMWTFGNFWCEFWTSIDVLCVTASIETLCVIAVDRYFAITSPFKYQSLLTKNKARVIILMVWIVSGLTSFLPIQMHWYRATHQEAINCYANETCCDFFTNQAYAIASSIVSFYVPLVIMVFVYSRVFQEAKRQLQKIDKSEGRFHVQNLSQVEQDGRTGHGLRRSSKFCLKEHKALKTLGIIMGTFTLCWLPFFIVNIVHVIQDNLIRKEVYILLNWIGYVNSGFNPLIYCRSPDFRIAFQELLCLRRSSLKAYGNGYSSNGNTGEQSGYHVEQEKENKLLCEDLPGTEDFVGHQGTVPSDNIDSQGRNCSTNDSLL

- EC50 (β2 receptor [1]; cAMP, 60 minutes incubation with compound, 300 μM rolipram, read-out: β2 pEC50 (converted)): 3.98 nM
- β2 Int Act (β2 receptor [1]; fraction relative to the maximum activity determined for formoterol, 60 minutes incubation): 1
- IC50 [2]: 5010 nM
- EC50 (β2 receptor [3]; cAMP, 10 minutes incubation with compound, 300 μM rolipram): 2.51 nM
- Intrinsic Activity (β2 receptor [3]; fraction relative to the maximum activity determined for formoterol, 10 minutes incubation): 1.1
Structure (SMILES): CCN(CC)CCN(CCNC[C@H](O)c1ccc(O)c2[nH]c(=O)sc12)C(=O)CCOCCc1ccccc1 [Example 7, N-[2-(Diethylamino)ethyl]-N-(2-{[(2R)-2-hydroxy-2-(4-hydroxy-2-oxo-2,3-dihydro-1,3-benzothiazol-7-yl)ethyl]amino}ethyl)-3-(2-phenylethoxy)propanamide]

Reference: patent US20090203753A1, “7-(2-amino-1-hydroxy-ethyl)-4-hydroxybenzothiazol-2(3H)-one-derivatives as beta2 adrenoreceptor agonists” (AstraZeneca AB, priority 2005, published 2009)
